Molecules are shown by their SMILES.

T1 sequence (P25103 whole entry): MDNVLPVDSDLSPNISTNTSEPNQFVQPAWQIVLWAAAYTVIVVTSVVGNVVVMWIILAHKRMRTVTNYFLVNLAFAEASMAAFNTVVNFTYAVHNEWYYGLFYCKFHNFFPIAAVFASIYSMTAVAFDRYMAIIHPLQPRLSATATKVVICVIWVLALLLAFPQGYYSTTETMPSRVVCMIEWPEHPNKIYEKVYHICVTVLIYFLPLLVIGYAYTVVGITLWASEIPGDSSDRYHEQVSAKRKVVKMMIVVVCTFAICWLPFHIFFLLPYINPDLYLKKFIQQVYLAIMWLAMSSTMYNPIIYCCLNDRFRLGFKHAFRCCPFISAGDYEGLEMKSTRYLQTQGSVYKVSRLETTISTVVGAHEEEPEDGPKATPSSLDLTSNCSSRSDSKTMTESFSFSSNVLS

The first test addresses T1, Substance-P receptor (Homo sapiens, UniProt P25103). The test is described as follows: Binding affinity was measured against the Tachykinin receptor 1 in human IM-9 cells using [3H]SP as ligand. The test is classed as cell-based.
Turning to `CN(Cc1ccccc1)C(=O)[C@H](Cc1ccc2ccccc2c1)NC(=O)[C@@H]1CCCC[C@@H]1NC(=O)c1c[nH]c2ccccc12`, the IC50 was 12.6 nM. This counts as double-digit nanomolar.

Compound `CN(Cc1ccccc1)C(=O)[C@H](Cc1ccc2ccccc2c1)NC(=O)C1(NC(=O)c2c[nH]c3ccccc23)CCCCC1` gave an IC50 of 1.26 nM.

The compound `CN(C(=O)Cc1ccccc1)[C@H](Cc1ccc2ccccc2c1)NC(=O)C1(NC(=O)c2c[nH]c3ccccc23)CCCCC1` gave an IC50 of 20 nM.

Consider `O=C(Cc1ccccc1)N[C@H](Cc1ccc2ccccc2c1)NC(=O)[C@@H]1CCCC[C@@H]1NC(=O)c1c[nH]c2ccccc12`, for which the IC50 is 316 nM.

Compound `CN(Cc1ccccc1)C(=O)[C@H](Cc1ccccc1)NC(=O)[C@@H]1CCCC[C@@H]1NC(=O)c1c[nH]c2ccccc12` showed an IC50 of 126 nM.

For `CN(Cc1ccccc1)C[C@H](Cc1ccc2ccccc2c1)NC(=O)[C@@H]1CCCC[C@@H]1NC(=O)c1c[nH]c2ccccc12`, the IC50 is 1260 nM.

`COc1ccccc1CN[C@H]1[C@@H]2CCC[C@@H]2N[C@H]1c1ccccc1` had an IC50 of 2.4 nM.

The next test addresses T1, Substance-P receptor. The test is described as follows: Binding affinity was measured against the Tachykinin receptor 1 in human IM-9 cells using [125I]Bolton-Hunter SP. The class given is cell-based.
Compound `COc1ccccc1CN1CCN2CCC[C@H]1[C@@H]2c1ccccc1` showed a half-inhibitory concentration (IC50) of 0.363 nM.

Regarding `COc1ccccc1CN[C@H]1C2CC3CCCC2CN3[C@H]1C(c1ccccc1)c1ccccc1` (some centres undefined), the IC50 was 1.91 nM.

Take `c1ccc(CN[C@H]2C3C4CCCC3CN(C4)[C@H]2C(c2ccccc2)c2ccccc2)cc1`: the IC50 was 229 nM.

In turn, `COc1ccccc1[C@@H]1CC[C@@]2(CCCN[C@H]2c2ccccc2)NC1` showed an IC50 of 2 nM.

`COc1ccccc1[C@@H]1CC[C@@]2(CCCN[C@H]2c2ccccc2)N1` gave an IC50 of 10000 nM.

In turn, `c1ccc(CN[C@H]2C3CC4CCCC(C3)N4[C@H]2C(c2ccccc2)c2ccccc2)cc1` showed an IC50 of 170 nM. This IC50 lies about 59-fold lower than the previous one.

The compound `COc1ccccc1CN1CN2CCC[C@H]1[C@@H]2c1ccccc1` showed an IC50 of 0.617 nM.

For the compound `c1ccc(CN[C@H]2C3CC4CCC(C3)N4[C@H]2C(c2ccccc2)c2ccccc2)cc1`, the IC50 was 67.6 nM. This IC50 is about 110-fold higher than that of the compound before.

Compound `COc1ccccc1CN[C@H]1C2CC3CCC(C2)N3[C@H]1C(c1ccccc1)c1ccccc1` had an IC50 of 0.912 nM. This IC50 lies about 74-fold lower than the previous one.

In another test the target is T1, Substance-P receptor. The test is described as follows: Binding affinity was measured against the Tachykinin receptor 1 in CHO-expressed hNK1 using [125I]SP.
Turning to `FC(F)(F)c1cc(CO[C@H]2CCCN(Cc3ccco3)[C@H]2c2ccccc2)cc(C(F)(F)F)c1`, the IC50 was 39.8 nM.

`FC(F)(F)c1cc(CO[C@H]2CCCN(Cc3cnc[nH]3)[C@H]2c2ccccc2)cc(C(F)(F)F)c1` gave an IC50 of 1 nM.

Take `N[C@H](COCc1cccc(Cl)c1)C(c1ccccc1)c1ccccc1`: the IC50 is 75.9 nM.

In the case of `FC(F)(F)c1cc(COCC2(c3ccccc3)CCCNC2)cc(C(F)(F)F)c1` (centres undefined), the IC50 was 20 nM.

Consider `O=C1O[C@@H](Cc2c[nH]c3ccccc23)C(=O)N1Cc1cc(C(F)(F)F)cc(C(F)(F)F)c1`, for which the IC50 was 25.7 nM.

Compound `Cc1cc(C)cc(COC[C@@H](Nc2ccccc2)C(c2ccccc2)c2ccccc2)c1` showed an IC50 of 81.3 nM.

Turning to `FC(F)(F)c1cc(CN[C@H]2C3CCN(CC3)[C@H]2C(c2ccccc2)c2ccccc2)cc(C(F)(F)F)c1`, the IC50 was 2 nM.

With `O=C1O[C@@H](Cc2c[nH]c3ccccc23)C(=O)N1Cc1cccc(C(F)(F)F)c1`, the IC50 is 2690 nM.

`c1ccc(CO[C@H]2C3CCN(CC3)[C@H]2C(c2ccccc2)c2ccccc2)cc1` had an IC50 of 75.9 nM.

In the case of `FC(F)(F)c1cc(CO[C@H]2CCCN(Cc3nnn[nH]3)[C@H]2c2ccccc2)cc(C(F)(F)F)c1`, the IC50 was 39.8 nM.

The compound `FC(F)(F)c1cc(COCC2(c3ccccc3)CCCCN2)cc(C(F)(F)F)c1` (centres undefined) showed an IC50 of 1 nM.

In turn, `CN(Cc1ccccc1)C(=O)CN1CCC[C@H](OCc2cc(C(F)(F)F)cc(C(F)(F)F)c2)[C@@H]1c1ccccc1` had an IC50 of 0.398 nM. This IC50 is about 2.5-fold lower than that of the compound before.

In turn, `N[C@H](COCc1ccccc1)C(c1ccccc1)c1ccccc1` gave an IC50 of 363 nM.

The compound `c1ccc(CN[C@H]2C3CCN(CC3)[C@H]2C(c2ccccc2)c2ccccc2)cc1` gave an IC50 of 28.8 nM.

The compound `COc1ccccc1CN[C@H]1C2CCN(CC2)[C@H]1Cc1ccccc1` had a half-inhibitory concentration (IC50) of 234 nM.

Turning to `FC(F)(F)c1cc(CO[C@H]2CCCN(Cc3ncc[nH]3)[C@H]2c2ccccc2)cc(C(F)(F)F)c1`, the IC50 was 0.501 nM.

In turn, `FC(F)(F)c1cc(CO[C@H]2CCCN(Cc3nnco3)[C@H]2c2ccccc2)cc(C(F)(F)F)c1` had an IC50 of 1 nM. Against the preceding compound, the IC50 is about 2-fold higher.

`O=c1[nH]nc(CN2CCC[C@H](OCc3cc(C(F)(F)F)cc(C(F)(F)F)c3)[C@@H]2c2ccccc2)[nH]1`: the IC50 was 0.1 nM.

`FC(F)(F)c1cc(CO[C@H]2CCCN(Cc3nnc[nH]3)[C@H]2c2ccccc2)cc(C(F)(F)F)c1` showed an IC50 of 0.2 nM.

`Cc1cc(C)cc(CO[C@H]2C3CCN(CC3)[C@H]2C(c2ccccc2)c2ccccc2)c1` [L-706125] gave an IC50 of 295 nM. This IC50 is about 1500-fold higher than that of the compound before.

Compound `CC(=O)N[C@@H](Cc1c[nH]c2ccccc12)C(=O)OCc1cc(C)cc(C)c1` [L-708568] had an IC50 of 52.5 nM.

Consider `FC(F)(F)c1cc(CO[C@H]2C3CCN(CC3)[C@H]2C(c2ccccc2)c2ccccc2)cc(C(F)(F)F)c1` [L-709210], for which the IC50 is 195 nM. Compared with the last compound, the IC50 is about 3.7-fold higher.

Take `CC(=O)N[C@@H](Cc1csc2ccccc12)C(=O)OCc1cc(C(F)(F)F)cc(C(F)(F)F)c1` [L-709400]: the IC50 was 15.1 nM.

Source of the values: ChEMBL document CHEMBL1131095, “Derivation of a three-dimensional pharmacophore model of substance P antagonists bound to the neurokinin-1 receptor” (J Med Chem, 1998).
